In publication PMC7450941, “Establishing a sensitive fluorescence-based quantification method for cyclic nucleotides” (BMC Biotechnology, 2020):

Molecular target: T1, Epac1-camps-His6 (Homo sapiens, UniProt O95398)
T1 construct: made in house; host or cells: E. coli BL21(DE3)-CodonPlus-RIL / BL21(DE3)-pLysS, pET11a
T1 sequence (O95398 199-357 limits assumed): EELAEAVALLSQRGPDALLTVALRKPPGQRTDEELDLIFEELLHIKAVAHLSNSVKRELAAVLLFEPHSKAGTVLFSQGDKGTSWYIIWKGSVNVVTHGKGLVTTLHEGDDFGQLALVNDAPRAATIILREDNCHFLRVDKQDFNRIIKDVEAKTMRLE
Test: cell-free FRET assay with purified Epac1-camps-His6 in 96 multi-well plates (EYFP/ECFP ratio R/R0)
Format: biochemical
Conditions: 96 MWP, plate reader
Experimental: To assess the functionality of the purified Epac1-camps-His6 protein, the protein was diluted to 0.7 μM and 90 μl of this solution was added to each well of a 96 multi well plate (MWP). Fluorescence emission in each well was measured in a plate reader. Excitation was at 430 nm and emission was recorded at 475 nm (ECFP) and 530 nm (EYFP). […] The final volume in each well was 100 μl, and final concentrations of cyclic nucleotides ranged from 10^− 9 - 10^− 4 M. Incubation of the sensor protein with its ligands was for 30 min. at room temperature. […] Normalized data were plotted against cyclic nucleotide concentrations and EC50 values were calculated. […] Mean values with standard deviations were obtained from four-fold determinations for each cyclic nucleotide.
Purified Epac1-camps-His6 protein was diluted to a concentration of 0.7 μM in IS buffer and 90 μl of the sample was added to each well of a 96 multi well plate. Excitation was at 430 nm and emission was recorded at 475 nm (ECFP) and 530 nm (EYFP). […] The final volume was 100 μl and final concentrations of cyclic nucleotides ranged from 10^− 9 - 10^− 4 M. The EYFP/ECFP ratio (R) for each well was calculated and normalized to the ratio of the basal fluorescence in the absence of cyclic nucleotides (R0). […] EC50 values were calculated with a four-parameter nonlinear regression using GraphPad Prism v5.04 […]

Q: `Nc1nc2c(ncn2[C@@H]2O[C@@H]3COP(=O)(O)O[C@H]3[C@H]2O)c(=O)[nH]1` [cGMP, cyclic guanosine 3′,5′-monophosphate] was tested. Which EC50 did it give?
A: 7.8 µM
